# Laboratory results reported in patent publication US20080268533A1, “Methods and Compositions Utilizing Myc and Gsk3Beta to Manipulate the Pluripotency of Embryonic Stem Cells” (University of Georgia Research Foundation, Inc., priority 2004, published 2008).
# Residues, ends and D or L forms follow the SMILES beside them. *: point of attachment. Cbz = O=C(OCc1ccccc1)*
# Tests used:
# [1] = molecular target: T1, GSK3β (Mus musculus, UniProt Q9WV60); assay: GSK3β kinase assay on immunoprecipitate, MBP substrate; format: biochemical; conditions: day 6 EB lysates, inhibitor 3 μM in ethanol
# T1 construct: endogenous in cells; host or cells: day 6 embryoid bodies derived from mouse ES cells (D3 / R1-EGFP)
# Method: Cell lysate (300 μg total protein) was adjusted to 1 mg/ml with cell lysis buffer and tumbled with 3 μg of primary antibody for 3 hours at 4° C. 30 μL of protein A Sepharose beads were added and tumbled for a further 1 hour at 4° C. The beads were washed three times with 1 ml of cold lysis buffer and once with 1 ml of kinase buffer (50 mM Hepes pH 7.5, 10 mM MgCl2, 1 mM DTT, 2.5 mM EGTA and protease inhibitor cocktail II (Calbiochem)). Immune complexes bound to the PAS beads were resuspended in 30 μL of kinase buffer with or without the addition of GSK3β inhibitor II (3 μM in ethanol, Calbiochem) or ethanol and incubated at 30° C. for 20 minutes. 10 μCi of [γ-^32P] ATP and 5 μg of myelin basic protein (MBP, Upstate Biotech) was added and the reactions incubated at 30° C. for a further 20 minutes. Reactions were terminated by the addition of 2×SDS load buffer, heated at 95° C. for 2 minutes and resolved on a 12% SDS-polyacrylamide gel. Kinase activities were quantitated by phosphorimager analysis.
# A common mechanism that triggers c-myc degradation is through its phosphorylation at threonine 58 (T58) by GSK3β (Hoang et al., (1995) Mol. Cell. Biol., 15:4031-4042; Sears et al., (2000) Genes Dev., 14:2501-2514; Gregory et al., (2003) J. Biol. Chem., 278:51606-51612). […]
# [2] = test system: c-myc; assay: c-myc protein stability assay with proteosome inhibitor (immunoblot); format: cell-based, mouse; conditions: EBs (−LIF), MG132 5 μM, 3 hours prior to harvesting
# Method: Cells were lysed by incubating for one hour on ice in lysis buffer consisting of 50 mM Hepes pH 7.5, 1 mM EDTA, 1 mM EGTA, 250 mM NaCl, 10% glycerol, 0.1% Tween-20, 10 μg/ml TPCK, 50 μg/ml TLCK, 170 μg/ml PMSF, 0.5 mg/ml leupeptin, 0.7 mg/ml pepstatin and phosphatase inhibitor cocktail II (Calbiochem) with occasional vortexing/pipetting. Whole cell extracts (20-40 μg total protein) were separated by 10% SDS-PAGE, transferred to nitrocellulose membranes (BioRad), blocked with 3% BSA in TBSE (Tris HCl pH 7.5, 150 mM NaCl, 2 mM EDTA and 0.1% NP40) and probed with the indicated antibodies at 4° C. The following antibodies were used: anti-c-myc (N-262; Santa Cruz), anti-Oct4 (N-19; Santa Cruz), anti-tubulin (Serotech), anti-HDAC1 (Zymed), anti-Cdk2 (M2; Santa Cruz), anti-GSK3β (Transduction Laboratories). The anti-HDAC1 antibody detects both HDAC1 and HDAC2 and accordingly, a doublet is seen by immunoblot analysis. An antibody that recognizes the T58 phosphorylated form of c-myc (T58/S62, Cell Signaling Technology) was used to evaluate the status of c-myc^T58. […]
# If so, it was predicted that c-myc would have enhanced stability. To test this possibility, the stability of c-myc was determined in undifferentiated ES cells relative to other cell types where its stability is in the order of 30 minutes or less (Hann & Eisenman, (1984) Mol. Cell. Biol., 4:2486-2497). […]
# [3] = test system: GSK3β^S9 phosphorylation; format: cell-based, murine; conditions: 6 hours, CA 2 nM, OA 2 nM
# Method: MESCs and d2 EBs were treated for the short-term (6 hours) with phosphatase inhibitors of varying specificities.
# [4] = test system: GSK3β; assay: GSK3β nuclear localization in EBs after OA treatment (staining); format: cell-based, murine; conditions: OA added to EBs, short incubation; data not shown
# Text: A key issue relating to the understanding of self-renewal is determining how GSK3β activity is suppressed in ESCs but activated in cells committed to differentiate. […] The cytoplasmic localization of GSK3β in mESCs was corroborated by subcellular fractionation using hypotonic lysis (FIG. 3).
# This mechanism accounts for the observed decline in phospho-S9 and activation of GSK3β that occurs during the early stages of differentiation. CA inhibits PP1 and PP2A in contrast to OA, which selectively targets PP2A. This implicated PP2A as a S9 phosphatase in this system. This is supported by experiments showing that PP2A complexes with GSK3 and c-myc in d2 EBs (FIG. 4C). […] While it is possible that nuclear GSK3β was degraded during OA treatment and nascent GSK3β retained in the cytoplasm, it is also likely that GSK3β is transported out of the nucleus in response to OA treatment since only short incubation periods were used and GSK3β is normally a stable protein. This would be consistent with a model where GSK3β localization is controlled by the phosphorylation status of S9. It is known that PP2A dephosphorylates S62 on c-myc, resulting in its degradation (Sears, (2004) Cell Cycle, 3(9):1133-7).
# [5] = test system: BG01 cells; assay: LY 294002 induced definitive endoderm (DE) formation, Sox17 Q-PCR; format: cell-based, human; conditions: BG01 on matrigel in MEF-CM, 60 μM LY 294002, BIO approx. 0.1-5 μM, MeBIO approx. 1-5, 3-4 days, Sox17 mRNA by Q-PCR
# Method: Q-PCT was performed using relative quantitation using SYBR Green chemistry on the Rotor Gene 3000 instrument (Corbett Research) and a two-step RT-PCR format. Primers were designed to lie over exon-exon boundaries or span introns of at least 800 bp when possible, as this has been empirically determined to eliminate amplification from contaminating genomic DNA.
# Total RNA was isolated using RNeasy (Qiagen) and quantitated using RiboGreen (Molecular Probes). Reverse transcription from 350-500 ng of total RNA was carried out using the iScript reverse transcriptase kit (BioRad), which contains a mix of oligo-dT and random primers. Each 20 μL reaction was subsequently diluted up to 100 μL total volume and 3 μL was used in each 10 μL Q-PCR reaction containing 400 nM forward and reverse primers and 5 μL 2×SYBR Green master mix (Qiagen). Two step cycling parameters were used employing a 5 second denature at 85-94° C. (specifically selected according to the melting temp of the amplicon for each primer set) followed by a 45 second anneal/extend at 60° C. Fluorescence data was collected during the last 15 seconds of each extension phase. A three point, 10-fold dilution series was used to generate the standard curve for each run and cycle thresholds (Ct's) were converted to quantitative values based on this standard curve. The quantitated values for each sample were normalized to housekeeping gene performance and then average and standard deviations were calculated for triplicate samples. At the conclusion of PCR cycling, a melt curve analysis was performed to ascertain the specificity of the reaction. A single specific product was indicated by a single peak at the Tm appropriate for that PCR amplicon.
# Both Cyclophilin G and GUS were used to calculate a normalization factor for all samples. The use of multiple HGs simultaneously reduces the variability inherent to the normalization process and increases the reliability of the relative gene expression values (Vandesompele et al., 2002, Genome Biol., 3:RESEARCH0034). […]
# T1 sequence (Q9WV60 whole entry): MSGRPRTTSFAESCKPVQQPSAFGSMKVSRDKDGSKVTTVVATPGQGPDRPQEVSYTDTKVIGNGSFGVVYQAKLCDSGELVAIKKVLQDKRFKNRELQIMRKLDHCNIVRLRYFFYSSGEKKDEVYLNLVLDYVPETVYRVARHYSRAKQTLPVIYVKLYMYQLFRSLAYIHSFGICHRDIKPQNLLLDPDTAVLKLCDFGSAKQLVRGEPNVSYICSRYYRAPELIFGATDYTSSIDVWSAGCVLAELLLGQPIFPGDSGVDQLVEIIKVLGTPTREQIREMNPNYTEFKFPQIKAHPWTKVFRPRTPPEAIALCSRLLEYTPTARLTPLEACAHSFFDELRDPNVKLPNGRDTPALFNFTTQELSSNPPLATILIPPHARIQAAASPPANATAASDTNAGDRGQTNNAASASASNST
structure (smiles),measurement,setting,value
Ic1cccc(CSc2nnc(-c3ccncc3)o2)c1 [GSK3β inhibitor II],immunoprecipitated GSK3β kinase activity,[1],sensitive
CC(C)C[C@@H](C=O)NC(=O)[C@H](CC(C)C)NC(=O)[C@H](CC(C)C)NC(=O)OCc1ccccc1 [MG132] (Cbz-Leu-Leu-Leu-aldehyde),turnover of c-myc protein following LIF withdrawal,[2],blocked
C=C1[C@@H](O)[C@@H]2O[C@]3(CC[C@H](/C=C/[C@@H](C)[C@@H]4CC(C)=C[C@@]5(O[C@H](C[C@@](C)(O)C(=O)O)CC[C@H]5O)O4)O3)CC[C@H]2O[C@@H]1[C@@H](O)C[C@H](C)[C@H]1O[C@@]2(CCCCO2)CC[C@H]1C [okadaic acid],GSK3β S9 phosphorylation in d2 EBs,[3],significantly increased S9 phosphorylation
same,GSK3β staining in the nucleus,[4],GSK3β staining in the nucleus disappeared
CN1C(=O)/C(=C2\Nc3ccccc3\C2=N/O)c2ccc(Br)cc21 [MeBIO],LY 294002 induced DE formation as determined by Sox17 expression,[5]; listed as MeBio,"but not MeBio, blocks LY 294002 induced DE formation"
same,LY 294002 induced DE formation as determined by Sox17 expression,[5]; listed as meBio,"but not meBio, blocked LY 294002 induced DE formation"
COC[C@@H]([C@H](O)[C@H](O)C(=O)NCC[C@H](C)c1nc(/C=C/C[C@@H]2O[C@]3(C[C@@H](O)[C@@H]2C)O[C@H]([C@H](C[C@H](O)[C@H](C)[C@H](O)[C@H](C)/C=C(C)/C(C)=C/C=C/C(C)=C\C#N)OC)[C@H](OP(=O)(O)O)C3(C)C)co1)N(C)C [Calyculin A],GSK3β S9 phosphorylation in d2 EBs,[3],significantly increased S9 phosphorylation
"O=C1Nc2cc(Br)ccc2/C1=C1/Nc2ccccc2/C1=N\O [BIO, 6-bromoindirubin-3′-oxime]",LY 294002 induced DE formation as determined by Sox17 expression,[5],blocks LY 294002 induced DE formation
